Measurements from ChEMBL document CHEMBL1141926, “Synthesis and anthelmintic activity of 7-substituted 3,4a-dimethyl-4a,5a,8a,8b-tetrahydro-6H-pyrrolo[3',4':4,5]furo[3,2-b]pyridine-6,8(7H)-diones” (Bioorg Med Chem Lett, 2005).

Legend:
Haemonchus contortus [1] = test: In vivo percentage Haemonchus contortus egg reduction in sheep at dose 0.05 mg/kg body weight; format: functional
[2] = Partition coefficient (logP) (HPLC); format: physicochemical; details: octanol/water
Haemonchus contortus [3] = test: In vivo percentage Haemonchus contortus egg reduction in sheep at dose 0.25 mg/kg body weight; format: functional
Haemonchus contortus [4] = test: In vivo percentage Haemonchus contortus egg reduction in sheep at dose 20 mg/kg body weight; format: functional
Haemonchus contortus [5] = test: In vivo percentage Haemonchus contortus egg reduction in sheep at dose 0.25 mg/kg body weight; Range 50-75%; format: functional
Haemonchus contortus [6] = test: In vivo percentage Haemonchus contortus egg reduction in sheep at dose 0.01 mg/kg body weight; format: functional
Haemonchus contortus [7] = test: In vivo percentage Haemonchus contortus egg reduction in sheep at dose 0.10 mg/kg body weight; format: functional; details: dose 0.1 mg/kg
Haemonchus contortus [8] = test: In vivo percentage Haemonchus contortus egg reduction in sheep at dose. 20 mg/kg body weight; format: functional, organism-based; set-up: dose 20 mg/kg; details: at 20 mg/kg

Compound | Reduction (Haemonchus contortus [1]) | logP [2] | also measured
CC1=CC2(C)OC3C(=O)N([C@@H](C)c4ccccc4)C(=O)C3C2N=C1 (stereo partly drawn) | >=95% | 1.7 | 
CCN1C(=O)[C@@H]2[C@H](O[C@@]3(C)C=C(C)C=N[C@H]23)C1=O |  | 0.46 | Reduction (Haemonchus contortus [3]): >=95%
COC(=O)Nc1nc2cc(C(=O)c3ccccc3)ccc2[nH]1 [MEBENDAZOLE] |  |  | Reduction (Haemonchus contortus [4]): >=95%
CCN1C(=O)[C@H]2[C@@H](O[C@]3(C)C=C(C)C=N[C@@H]23)C1=O |  | 0.46 | Reduction (Haemonchus contortus [5]): 75%
CCN1C(=O)C2OC3(C)C=C(C)C=NC3C2C1=O (stereo not drawn) |  | 0.46 | Reduction (Haemonchus contortus [6]): >=95%
CC1=CC2(C)OC3C(=O)N(Cc4ccccc4)C(=O)C3C2N=C1 (stereo not drawn) |  | 1.51 | Reduction (Haemonchus contortus [7]): >=95%
CC1=CC2(C)OC3C(=O)N(C4CC4)C(=O)C3C2N=C1 (stereo not drawn) | >=95% | 0.5 | 
CC1=CC2(C)OC3C(=O)N(C)C(=O)C3C2N=C1 (stereo not drawn) |  | < 0 | Reduction (Haemonchus contortus [7]): >=95%
IVERMECTIN |  |  | Reduction (Haemonchus contortus [8]): > 95%
CCCCN1C(=O)C2OC3(C)C=C(C)C=NC3C2C1=O (stereo not drawn) | >=95% | 1.3 | 
